For assay [1], the target named is purified human Factor XIa (Homo sapiens (Human), UniProt P03951). Kind of assay: biochemical. The assay is classed as biochemical.
The target of assay [2] is purified human plasma kallikrein (Homo sapiens (Human), UniProt P03952). Kind of assay: biochemical. The assay is classed as biochemical.

Counter-ions that a name gives are not always drawn. Like-named read-outs stand apart in the source and are kept apart here.

Chain of purified human plasma kallikrein (P03952 whole entry, looked up): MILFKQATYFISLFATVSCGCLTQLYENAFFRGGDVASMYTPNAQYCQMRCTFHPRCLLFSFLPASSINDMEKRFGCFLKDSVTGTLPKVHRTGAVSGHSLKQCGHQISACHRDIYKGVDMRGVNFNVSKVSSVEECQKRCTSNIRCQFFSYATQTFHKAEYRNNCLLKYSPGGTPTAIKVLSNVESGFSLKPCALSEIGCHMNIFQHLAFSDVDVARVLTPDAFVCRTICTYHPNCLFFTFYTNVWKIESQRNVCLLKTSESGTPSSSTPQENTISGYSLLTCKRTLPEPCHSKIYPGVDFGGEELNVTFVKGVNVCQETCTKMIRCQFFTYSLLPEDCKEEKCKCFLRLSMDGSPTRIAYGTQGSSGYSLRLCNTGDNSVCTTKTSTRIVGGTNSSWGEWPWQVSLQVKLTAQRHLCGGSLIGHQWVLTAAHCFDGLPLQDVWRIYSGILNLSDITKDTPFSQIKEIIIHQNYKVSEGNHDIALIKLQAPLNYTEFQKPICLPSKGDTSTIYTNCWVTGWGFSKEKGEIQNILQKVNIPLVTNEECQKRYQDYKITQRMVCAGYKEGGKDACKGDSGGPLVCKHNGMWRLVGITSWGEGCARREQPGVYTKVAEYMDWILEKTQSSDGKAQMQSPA
Chain of purified human plasma kallikrein (P03952 whole entry partner, looked up): as the sequence (P03952 whole entry, looked up) above
Chain of purified human Factor XIa (P03951 whole entry, looked up): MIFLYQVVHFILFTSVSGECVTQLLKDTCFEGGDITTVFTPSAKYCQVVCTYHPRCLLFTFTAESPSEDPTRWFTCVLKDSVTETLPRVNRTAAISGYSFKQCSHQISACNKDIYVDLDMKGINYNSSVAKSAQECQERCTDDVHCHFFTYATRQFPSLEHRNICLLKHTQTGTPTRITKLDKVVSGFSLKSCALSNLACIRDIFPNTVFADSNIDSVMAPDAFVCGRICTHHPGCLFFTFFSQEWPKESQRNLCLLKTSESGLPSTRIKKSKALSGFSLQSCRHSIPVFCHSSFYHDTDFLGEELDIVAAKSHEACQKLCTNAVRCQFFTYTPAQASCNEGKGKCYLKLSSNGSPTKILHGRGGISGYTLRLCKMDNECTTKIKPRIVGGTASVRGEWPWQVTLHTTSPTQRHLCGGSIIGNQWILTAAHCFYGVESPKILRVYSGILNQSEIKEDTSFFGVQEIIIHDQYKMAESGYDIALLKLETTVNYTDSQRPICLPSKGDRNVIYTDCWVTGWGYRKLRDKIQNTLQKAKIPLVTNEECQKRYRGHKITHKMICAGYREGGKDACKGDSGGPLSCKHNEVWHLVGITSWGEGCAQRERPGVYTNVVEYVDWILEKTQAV
Chain of purified human Factor XIa (P03951 whole entry partner, looked up): as the sequence (P03951 whole entry, looked up) above

What is called Ki is the equilibrium dissociation constant of an inhibitor or competing ligand from its target. For the compound `COC(=O)Nc1ccc2c(c1)NC(=O)[C@H](C)CCC[C@H](N1CCC(c3c(-c4c[nH]nn4)ccc(Cl)c3F)=CC1=O)c1cc-2ccn1` [Example 182, Methyl N-[(10R,14S)-14-{4-[3-chloro-2-fluoro-6-(1H-1,2,3-triazol-4-yl)phenyl]-6-oxo-1,2,3,6-tetrahydropyridin-1-yl}-10-methyl-9-oxo-8,16-diazatricyclo[13.3.1.0^2,7]nonadeca-1(19),2(7),3,5,15,17-hexaen-5-yl]carbamate], the Ki in assay [1] (read-out: Factor XIa Ki) came out at 0.11 nM; in assay [2] (read-out: Plasma Kallikrein Ki), 14.3 nM.

For `CC(=O)Nc1ccc(Cl)c(F)c1C1=CC(=O)N([C@H]2CCC[C@@H](C)C(=O)Nc3ccccc3-c3ccnc2c3)CC1` [Example 183, N-(4-chloro-3-fluoro-2-{1-[(10R,14S)-10-methyl-9-oxo-8,16-diazatricyclo[13.3.1.0^2,7]nonadeca-1(19),2(7),3,5,15,17-hexaen-14-yl]-6-oxo-1,2,3,6-tetrahydropyridin-4-yl}phenyl)acetamide], the Ki is 75.1 nM in assay [1] (read-out: Factor XIa Ki) and 297 nM in assay [2] (read-out: Plasma Kallikrein Ki).

As to `C[C@@H]1CCC[C@H](N2CCC(c3c(-n4cnnn4)ccc(Cl)c3F)=CC2=O)c2cc(ccn2)-c2cc(F)ccc2NC1=O` [Example 184, (10R,14S)-14-{4-[3-chloro-2-fluoro-6-(1H-1,2,3,4-tetrazol-1-yl)phenyl]-6-oxo-1,2,3,6-tetrahydropyridin-1-yl}-4-fluoro-10-methyl-8,16-diazatricyclo[13.3.1.0^2,7]nonadeca-1(19),2(7),3,5,15,17-hexaen-9-one], the inhibition constant (Ki) is under 0.05 nM in assay [1] (read-out: Factor XIa Ki) and 2.51 nM in assay [2] (read-out: Plasma Kallikrein Ki).

As for `C[C@@H]1CCC[C@H](n2ccc(-c3c(F)ccc(Cl)c3F)cc2=O)c2cc(ccn2)-c2ccncc2NC1=O` [Example 185, (10R,14S)-14-[4-(3-chloro-2,6-difluorophenyl)-2-oxo-1,2-dihydropyridin-1-yl]-10-methyl-5,8,16-triazatricyclo[13.3.1.0^2,7]nonadeca-1(19),2(7),3,5,15,17-hexaen-9-one], the Ki in assay [1] amounted to 22.8 nM; in assay [2] (Plasma Kallikrein Ki) it was 47.4 nM.

As for `COC(=O)c1ccc2c(c1)-c1ccnc(c1)[C@@H](N1CCC(c3c(C(F)(F)F)ccc(Cl)c3F)=CC1=O)CCC[C@@H](C)C(=O)N2` [Example 186, Methyl (10R,14S)-14-{4-[3-chloro-2-fluoro-6-(trifluoromethyl)phenyl]-6-oxo-1,2,3,6-tetrahydropyridin-1-yl}-10-methyl-9-oxo-8,16-diazatricyclo[13.3.1.0^2,7]nonadeca-1(19),2(7),3,5,15,17-hexaene-4-carboxylate], the results for the inhibition constant (Ki) in assay [1] (read-out: Factor XIa Ki) and in assay [2] (read-out: Plasma Kallikrein Ki) were 57.9 nM and 60.5 nM, respectively.

As to `C[C@@H]1CCC[C@H](N2CCC(c3c(C(F)(F)F)ccc(Cl)c3F)=CC2=O)c2cc(ccn2)-c2cc(C(=O)O)ccc2NC1=O` [Example 187, (10R,14S)-14-{4-[3-chloro-2-fluoro-6-(trifluoromethyl)phenyl]-6-oxo-1,2,3,6-tetrahydropyridin-1-yl}-10-methyl-9-oxo-8,16-diazatricyclo[13.3.1.0^2,7]nonadeca-1(19),2(7),3,5,15,17-hexaene-4-carboxylic acid], the figures for the Ki in assay [1] (read-out: Factor XIa Ki) and in assay [2] (read-out: Plasma Kallikrein Ki) were 0.44 nM and 17.4 nM, respectively.

In the case of `C[C@@H]1CCC[C@H](N2CCC(c3cc(Cl)ccc3-n3ccnn3)=CC2=O)c2cc(ccn2)-c2cc(F)ccc2NC1=O` [Example 188, (10R,14S)-14-{4-[5-chloro-2-(1H-1,2,3-triazol-1-yl)phenyl]-6-oxo-1,2,3,6-tetrahydropyridin-1-yl}-4-fluoro-10-methyl-8,16-diazatricyclo[13.3.1.0^2,7]nonadeca-1(19),2(7),3,5,15,17-hexaen-9-one], the inhibition constant Ki in assay [1] (read-out: Factor XIa Ki) was determined as 1.6 nM; in assay [2] (read-out: Plasma Kallikrein Ki) it was 23.2 nM.

As to `COC(=O)Nc1ccc2c(c1)NC(=O)[C@H](C)CCC[C@H](N1CCC(c3c(F)ccc(Br)c3F)=CC1=O)c1cc-2ccn1` [Example 190, Methyl N-[(10R,14S)-14-[4-(3-bromo-2,6-difluorophenyl)-6-oxo-1,2,3,6-tetrahydropyridin-1-yl]-10-methyl-9-oxo-8,16-diazatricyclo[13.3.1.0^2,7]nonadeca-1(19),2,4,6,15,17-hexaen-5-yl]carbamate], the Ki is 0.27 nM in assay [1] (read-out: Factor XIa Ki) and 1.11 nM in assay [2] (read-out: Plasma Kallikrein Ki).

With `COC(=O)Nc1ccc2c(c1)NC(=O)[C@H](C)CCC[C@H](N1CCC(c3c(C(C)=O)ccc(Cl)c3F)=CC1=O)c1cc(F)cc-2c1` [Example 191, Methyl N-[(10R,14S)-14-[4-(6-acetyl-3-chloro-2-fluorophenyl)-6-oxo-1,2,3,6-tetrahydropyridin-1-yl]-17-fluoro-10-methyl-9-oxo-8-azatricyclo[13.3.1.0^2,7]nonadeca-1(19),2,4,6,15,17-hexaen-5-yl]carbamate], the Ki in assay [1] (read-out: Factor XIa Ki) is 0.23 nM; in assay [2] (read-out: Plasma Kallikrein Ki) it was 19.2 nM.

For the compound `C[C@@H]1CCC[C@H](N2CCC(c3c(F)ccc(Cl)c3F)=CC2=O)c2cc(ccn2)-c2cc(Br)c(N)cc2NC1=O` [Example 193, (10R,14S)-5-amino-4-bromo-14-[4-(3-chloro-2,6-difluorophenyl)-6-oxo-1,2,3,6-tetrahydropyridin-1-yl]-10-methyl-8,16-diazatricyclo[13.3.1.0^2,7]nonadeca-1(19),2(7),3,5,15,17-hexaen-9-one, 2 TFA salt], the Ki was 1.02 nM in assay [1] (read-out: Factor XIa Ki) and 3.91 nM in assay [2] (read-out: Plasma Kallikrein Ki).

For the compound `C[C@@H]1CCC[C@H](N2CCC(c3c(F)ccc(Cl)c3F)=CC2=O)c2cc(ccn2)-c2ccc(Nc3cccnc3)cc2NC1=O` [Example 195, (10R,14S)-14-[4-(3-chloro-2,6-difluorophenyl)-6-oxo-1,2,3,6-tetrahydropyridin-1-yl]-10-methyl-5-[(pyridin-3-yl)amino]-8,16-diazatricyclo[13.3.1.0^2,7]nonadeca-1(19),2(7),3,5,15,17-hexaen-9-one, 3 TFA salt], the Ki in assay [1] (read-out: Factor XIa Ki) is 0.47 nM; in assay [2] (read-out: Plasma Kallikrein Ki), 2.96 nM.

Regarding `C[C@@H]1CCC[C@H](N2CCC(c3c(F)ccc(Cl)c3F)=CC2=O)c2cc(ccn2)-c2ccc(Nc3cccnn3)cc2NC1=O` [Example 196, (10R,14S)-14-[4-(3-chloro-2,6-difluorophenyl)-6-oxo-1,2,3,6-tetrahydropyridin-1-yl]-10-methyl-5-[(pyridazin-3-yl)amino]-8,16-diazatricyclo[13.3.1.0^2,7]nonadeca-1(19),2(7),3,5,15,17-hexaen-9-one, 2 TFA salt], the Ki was 0.8 nM in assay [1] (read-out: Factor XIa Ki) and 1.52 nM in assay [2] (read-out: Plasma Kallikrein Ki).

Regarding `C[C@@H]1CCC[C@H](N2CCC(c3c(F)ccc(Cl)c3F)=CC2=O)c2cc(ccn2)-c2cc(C(=O)O)c(N)cc2NC1=O` [Example 198, (10R,14S)-5-amino-14-[4-(3-chloro-2,6-difluorophenyl)-6-oxo-1,2,3,6-tetrahydropyridin-1-yl]-10-methyl-9-oxo-8,16-diazatricyclo[13.3.1.0^2,7]nonadeca-1(19),2,4,6,15,17-hexaene-4-carboxylic acid, 2 TFA salt], the results for the Ki in assay [1] (read-out: Factor XIa Ki) and in assay [2] (read-out: Plasma Kallikrein Ki) were under 0.05 nM and 1 nM, respectively.

With `C[C@@H]1CCC[C@H](N2CCC(c3c(F)ccc(Cl)c3F)=CC2=O)c2cc(ccn2)-c2cc3c(O)cc(=O)[nH]c3cc2NC1=O` [Example 199, (14R,18S)-18-[4-(3-chloro-2,6-difluorophenyl)-6-oxo-1,2,3,6-tetrahydropyridin-1-yl]-5-hydroxy-14-methyl-8,12,20-triazatetracyclo[17.3.1.0^2,11.0^4,9]tricosa-1(23),2,4(9),5,10,19,21-heptaene-7,13-dione, TFA salt], the inhibition constant Ki was under 0.05 nM in assay [1] (read-out: Factor XIa Ki) and 1.79 nM in assay [2] (read-out: Plasma Kallikrein Ki).

As to `C[C@@H]1CCC[C@H](n2ccc(-c3c(F)ccc(Cl)c3F)cc2=O)c2cc(ccn2)-c2c(F)cccc2NC1=O` [Example 200, (10R,14S)-14-[4-(3-chloro-2,6-difluorophenyl)-2-oxo-1,2-dihydropyridin-1-yl]-3-fluoro-10-methyl-8,16-diazatricyclo[13.3.1.0^2,7]nonadeca-1(19),2(7),3,5,15,17-hexaen-9-one, TFA salt], the figures for the Ki in assay [1] (read-out: Factor XIa Ki) and in assay [2] (read-out: Plasma Kallikrein Ki) were 18.1 nM and 28.7 nM, respectively.

Regarding `C[C@@H]1CCC[C@H](N2CCC(c3c(F)ccc(Cl)c3F)=CC2=O)c2cc(ccn2)-c2c(F)cc(F)cc2NC1=O` [Example 201, (10R,14S)-14-[4-(3-chloro-2,6-difluorophenyl)-6-oxo-1,2,3,6-tetrahydropyridin-1-yl]-3,5-difluoro-10-methyl-8,16-diazatricyclo[13.3.1.0^2,7]nonadeca-1(19),2(7),3,5,15,17-hexaen-9-one, TFA salt], the values for the Ki in assay [1] (read-out: Factor XIa Ki) and in assay [2] (read-out: Plasma Kallikrein Ki) were 50 nM and 105 nM, respectively.

With `C[C@@H]1CCC[C@H](N2CCC(c3c(Br)ccc(Cl)c3F)=CC2=O)c2cc(ccn2)-c2c(F)cc(F)cc2NC1=O` [Example 202, (10R,14S)-14-[4-(6-bromo-3-chloro-2-fluorophenyl)-6-oxo-1,2,3,6-tetrahydropyridin-1-yl]-3,5-difluoro-10-methyl-8,16-diazatricyclo[13.3.1.0^2,7]nonadeca-1(19),2(7),3,5,15,17-hexaen-9-one], the inhibition constant (Ki) in assay [1] (read-out: Factor XIa Ki) is 8.56 nM; in assay [2] (read-out: Plasma Kallikrein Ki) it was 30.1 nM.

As for `C[C@@H]1CCC[C@H](N2CCC(c3c(F)ccc(Cl)c3F)=CC2=O)c2cc(ccn2)-c2c(ccc(F)c2F)NC1=O` [Example 203, (10R,14S)-14-[4-(3-chloro-2,6-difluorophenyl)-6-oxo-1,2,3,6-tetrahydropyridin-1-yl]-3,4-difluoro-10-methyl-8,16-diazatricyclo[13.3.1.0^2,7]nonadeca-1(19),2(7),3,5,15,17-hexaen-9-one, TFA salt], the values for the inhibitory constant (Ki) in assay [1] (read-out: Factor XIa Ki) and in assay [2] (read-out: Plasma Kallikrein Ki) were 19.4 nM and 44 nM, respectively.

`C[C@@H]1CCC[C@H](N2CCC(c3c(Br)ccc(Cl)c3F)=CC2=O)c2cc(ccn2)-c2c(ccc(F)c2F)NC1=O` [Example 204, (10R,14S)-14-[4-(6-bromo-3-chloro-2-fluorophenyl)-6-oxo-1,2,3,6-tetrahydropyridin-1-yl]-3,4-difluoro-10-methyl-8,16-diazatricyclo[13.3.1.0^2,7]nonadeca-1(19),2(7),3,5,15,17-hexaen-9-one, TFA salt]: the inhibitory constant (Ki) was 4.46 nM in assay [1] (read-out: Factor XIa Ki) and 16 nM in assay [2] (read-out: Plasma Kallikrein Ki).

For the origin of these results see patent US9409908B2 (priority 2012, dated 2016).
